Literature values in patent US20100143471A1, “NOVEL REDUCED DOSE PHARMACEUTICAL COMPOSITIONS OF FE[…] PSEUDOEPHEDRINE” (LUPIN LIMITED, priority 2007, published 2010).
Counter-ions that a name gives are not always drawn.

Test system: seasonal allergic rhinitis symptoms
Conditions: children aged 6-11 years

Structure (SMILES)	reduction of seasonal allergic rhinitis symptoms (30 mg bid)	safety and sedation (doses of up to 60 mg bid)
CC(C)(C(=O)O)c1ccc(C(O)CCCN2CCC(C(O)(c3ccccc3)c3ccccc3)CC2)cc1 (centres unmarked) [fexofenadine HCl]	effectively reduces all seasonal allergic rhinitis symptoms	
CC(C)(C(=O)O)c1ccc(C(O)CCCN2CCC(C(O)(c3ccccc3)c3ccccc3)CC2)cc1 (centres unmarked) [fexofenadine]		safe and nonsedating
